Data taken from ChEMBL document CHEMBL1132908, “Synthesis and activity studies of conformationally restricted alpha-ketoamide factor Xa inhibitors” (Bioorg Med Chem Lett, 2000).

Key:
Coagulation factor X = Coagulation factor X (Homo sapiens, UniProt P00742); experiment: Inhibition of Coagulation factor X
Prothrombin = Prothrombin (Homo sapiens, UniProt P00734); experiment: Binding affinity for human thrombin

Chain of Coagulation factor X (P00742 41-179 limits assumed): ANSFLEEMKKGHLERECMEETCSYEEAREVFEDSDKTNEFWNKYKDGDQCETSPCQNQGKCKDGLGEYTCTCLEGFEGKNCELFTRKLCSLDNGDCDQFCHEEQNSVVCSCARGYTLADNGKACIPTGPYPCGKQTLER
Chain of Coagulation factor X (P00742 235-488 limits assumed): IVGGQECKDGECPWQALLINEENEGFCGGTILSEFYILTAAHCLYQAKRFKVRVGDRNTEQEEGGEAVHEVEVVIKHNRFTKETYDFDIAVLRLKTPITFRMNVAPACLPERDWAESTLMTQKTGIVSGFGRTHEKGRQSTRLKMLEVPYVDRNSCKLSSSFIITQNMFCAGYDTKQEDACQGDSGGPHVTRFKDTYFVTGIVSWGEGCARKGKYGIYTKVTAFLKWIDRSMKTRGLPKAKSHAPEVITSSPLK

How did the Ki (Coagulation factor X) turn out when `CN(CC(=O)N[C@@H](CCCCN)C(=O)C(=O)NCCN1CCOCC1)C(=O)c1ccccc1Sc1ccccc1C#N` was run?
The Ki was 200 nM.

And the Ki (Prothrombin)?
The Ki was 8700 nM.

With `CN(CC(=O)N[C@@H](CCCCN)C(=O)C(=O)Nc1ccc(Oc2cccc(N)c2)cc1)C(=O)c1ccccc1Sc1ccccc1C#N` as the compound, how does the Ki (Coagulation factor X) read?
The Ki was 120 nM.

What about the Ki (Prothrombin) of the same compound?
Its Ki is 59 nM.

What does the source list for `CN(CC(=O)N[C@@H](CCCCN)B(O)O)C(=O)c1ccccc1Sc1ccccc1`?
Ki (Coagulation factor X): 17 nM; Ki (Prothrombin): 1.6 nM

How did the Ki (Coagulation factor X) turn out when `CNC(=O)C(=O)[C@H](CCCCN)NC(=O)CN(C)C(=O)c1ccccc1Sc1ccccc1C#N` was run?
Its Ki is 110 nM.

And the Ki (Prothrombin)?
The Ki was 570 nM.

How did the Ki (Coagulation factor X) turn out when `CN(CC(=O)N[C@@H](CCCCN)B(O)O)C(=O)c1ccccc1S(=O)(=O)c1ccccc1` was run?
Its Ki is 5800 nM.

What about the Ki (Prothrombin) of the same compound?
The Ki was 97 nM.

How did the Ki (Coagulation factor X) turn out when `CN(CC(=O)N[C@@H](CCCCN)C(=O)C(=O)Nc1ccc(Oc2ccc(N)cc2)cc1)C(=O)c1ccccc1Sc1ccccc1C#N` was run?
The Ki was 120 nM.

And the Ki (Prothrombin)?
Its Ki is 68 nM.

For `CN(CC(=O)N[C@@H](CCCCN)C(=O)C(=O)NCc1ccccn1)C(=O)c1ccccc1Sc1ccccc1C#N`, which Ki (Coagulation factor X) is on record?
Its Ki is 360 nM.

What about the Ki (Prothrombin) of the same compound?
The Ki was 7400 nM.

Which Ki (Coagulation factor X) does the source give for `CN(CC(=O)N[C@@H](CCCCN)C(=O)C(=O)Nc1ccccc1)C(=O)c1ccccc1Sc1ccccc1C#N` here?
Its Ki is 54 nM.

And the Ki (Prothrombin)?
The Ki was 60 nM.

For `CN(CC(=O)N[C@@H](CCCCN)C(=O)C(=O)Nc1cccc(N)c1)C(=O)c1ccccc1Sc1ccccc1C#N`, which Ki (Coagulation factor X) is on record?
The Ki was 120 nM.

And the Ki (Prothrombin)?
The Ki was 120 nM.

With `CN(CC(=O)N[C@@H](CCCCN)C(=O)C(=O)Nc1ccc(Oc2cccnc2)cc1)C(=O)c1ccccc1Sc1ccccc1C#N` as the compound, how does the Ki (Coagulation factor X) read?
The Ki was 60 nM.

What about the Ki (Prothrombin) of the same compound?
Its Ki is 50 nM.

How did the Ki (Coagulation factor X) turn out when `CN(CC(=O)N[C@@H](CCCCN)B(O)O)C(=O)c1ccccc1Sc1ccccc1C#N` was run?
Its Ki is 1.1 nM.

And the Ki (Prothrombin)?
Its Ki is 8.8 nM.

For `CN(CC(=O)N[C@@H](CCCCN)B(O)O)C(=O)c1ccccc1Cc1ccccc1`, which Ki (Coagulation factor X) is on record?
Its Ki is 100 nM.

And the Ki (Prothrombin)?
The Ki was 4.9 nM.
